Measurements from patent US20160101177A1, “pH AND LIGHT ACTIVATED ANTI-CANCER DRUGS” (The Board of Trustees of the University of Alabama, priority 2014, published 2016).
Where “and” joins values, the source holds several entries; their conditions need not be identical. Equal entries are not always repeated.

How the values were obtained:
[1] = tested on: human cervical carcinoma (HeLa) cells; assay: MTT cell viability assay in HeLa cells with or without 450 nm irradiation; assay type: cell-based; conditions: for HeLa cell viability, no irradiation: absence of light; for IC50: read-out: IC50 (error)
Method: For cell culture, human cervical carcinoma (HeLa) cells were obtained from the ATCC. The cells were cultured at 37° C. in a 5% CO2, humidified atmosphere in Dulbecco's Modified Eagle Medium (DMEM) supplemented with 10% fetal bovine serum, 100 U/mL penicillin, and 100 μg/ml streptomycin (Invitrogen). Assays were accomplished by seeding cells at a density of 5,000 cells/well in a 96-well plate and incubated at 37° C. overnight. Media was exchanged and then cells were treated with either 100 μM [Ru(bpy)2(66′bpy(OH)2)]^2+, [Ru(bpy)2(44′bpy(OH)2)]^2+, or [Ru(bpy)3]^2+ for 48 h. The medium containing compounds was discarded, cells were washed, and fresh Hank's Balanced Salt Solution was added. In the dark, cells were irradiated using a 450 nm light emitting diode (LED) flashlight positioned 4 cm from the plate for 1 h. The salt solution was exchanged with media and cells were allowed to grow for 24 h. Media containing 20 μL of 3-(4,5-dimethylthiazol-2-yl)-[…] bromide (MTT) (5 mg/mL) was added to each well and incubated for an additional 3 h. The medium was removed. After adding 200 μL of DMSO to each well, the optical densities at 570 nm were determined The p-values were calculated from triplicate data sets using KaleidaGraph software.
Upon irradiation the [Ru(bpy)2(66′bpy(OH)2)]^2+ prodrug can be converted into a cytotoxic agent while in a cell. For example, HeLa cells were plated, incubated with [Ru(bpy)2(66′bpy(OH)2)]^2+, irradiated, and an MTT cell viability assay was used to assess cellular viability. […] The average viability dropped to 93+/−6%. The change is not statistically significant with p greater than 0.05. Similar results were obtained when cells were not treated with the agent and only irradiated for one hour. The viability dropped to 88+/−9%. […] When [Ru(bpy)2(66′bpy(OH)2)]^2+ was incubated with HeLa cells and irradiated the viability dropped to 47+/−12%. This is a statistically significant drop with p less than 0.004 and 0.02 for no ruthenium-complex and no irradiation respectively. Further experiments changing the concentration of [Ru(bpy)2(66′bpy(OH)2)]^2+ in HeLa cells under irradiation can allow for measurement of an inhibitory concentration (IC50). The IC50 for anti-cancer activity is given in Table 1, which are consistent with the data in FIG. 3.

[2] = Kinetics of light-induced ligand photo-dissociation monitored by UV/visible spectroscopy; assay type: physicochemical; conditions: for rate of photodecomposition / ligand loss: pH 7.5 in water
Text: The rate of ligand loss from [Ru(bpy)2(66′bpy(OH)2)]^2+ to give the active anti-cancer agent ([Ru(bpy)2(solvent)2]^2+) can depend greatly on pH and the solvent composition. At pH 5 in aqueous solution, [Ru(bpy)2(66′bpy(OH)2)]^2+ undergoes blue light induced ligand loss which was monitored by UV/visible spectroscopy over one hour (graph (a) in FIG. 8). At this pH, which is below pKa1 and pKa2, the dihydroxybipyridine ligand should be in its native (protonated) state and should correspond to weaker Ru—N bonds (cf. deprotonated ligand), due to a less electron rich ligand as corroborated by crystallographic and computational results described herein. […] This A→B process is consistent with the clean isosbestic point observed, and furthermore, a first or second order process can be ruled out due to non-linear (curved) plots for these rate laws (see supplementary materials).
At this pH, which is above pKa1 and pKa2, the 6,6′-dihydroxybipyridine ligand should be fully deprotonated, which corresponds to stronger Ru—N bonds. Slight fluctuations in the absorbance values can be attributed to noise, and at this pH the rate of photodecomposition appears to be zero. Thus, the deprotonated, more strongly donating ligand appears to block photodecomposition. Thus, this establishes the framework for how a metal-based prodrug can be selectively activated in cancer cells, which have a lower pH as compared to normal cells.
Studies in acetonitrile were done to monitor the process that gave rise to ([Ru(bpy)2(CH3CN)2]^2+) and investigate the influence of solvent on the rates. […] In contrast, upon irradiation with blue light (450 nm), [Ru(bpy)2(66′bpy(OH)2)]^2+ in acetonitrile undergoes decomposition to give [Ru(bpy)2(CH3CN)2)]^2+ and the free ligand, 66′bpy(OH)2 (λmax=343 nm, 421 nm). These products have been prepared independently and their spectra are consistent with those shown for the final result of photodecomposition (graph (c) in FIG. 8). The observed zero order rate constant, kobs=2.6×10^−7 M/s, was determined by fitting an A→B process at 457 nm. The large changes in light absorption show a clean isosbestic point at λ=422 nm and is consistent with an A→B process. Furthermore, the light induced loss of a ligand is consistent with a zero order process that is independent of concentration. The observed rate constant, kobs=2.6(1)×10^−7 M/s, reflects that photodecomposition is nearly complete (87%) in 5 minutes, and it is entirely complete within 20 minutes, graph (c) in FIG. 8. Thus, the reaction proceeds 15 times more quickly in acetonitrile vs. pH 5 aqueous media. This could be attributed to decreased back reaction in acetonitrile, or enhanced stability of the product ligand in acetonitrile since it is better solvated. The product complex is analogous to the likely product of photodecomposition in vivo, namely [Ru(bpy)2(H2O)2)]^2+.

[3] = pH titration by UV/visible absorbance in aqueous buffers (pKa); assay type: physicochemical; conditions: aqueous buffers pH 1 to 13, 25° C.
Method: ^1H-NMR spectra were collected on a Varian 300 MHz Fourier Transform spectrometer in deuterated acetonitrile (CD3CN) Infrared spectra were obtained on a Perkin Elmer Spectrum One FT-IR with Universal ATR sampling accessory. UV-visible absorption spectra were collected on a Scinco S-3100 diode-array spectrophotometer at a resolution of 1 nm. Luminescence data was collected on a Horiba Jobin Yvon Fluoromax 3. pH measurements were performed using a VWR SympHony pH meter, utilizing a three point calibration at pH=4.0, 7.0, and 10.0.
UV/visible absorbance data was collected for [Ru(bpy)2(66′bpy(OH)2)]^2+ in aqueous buffers ranging from pH=1 to pH=13, FIG. 6. The deprotonated form of [Ru(bpy)2(66′bpy(OH)2)]^2+ is red shifted compared to the protonated form of the complex. The pH titration data can show two distinct events that yielded a pKa1=5.26 and pKa2=7.27.

[4] = 100 μM complex for 48 h, untreated non-irradiated cells = 100%
[5] = HeLa cells under irradiation (450 nm, 1 h), MTT

SMILES | HeLa cell viability, no irradiation [1, 4] | IC50 (error) [1, 5] | IC50 [1, 5] | photo-dissociation of ligand ([2]; blue light) | HeLa cell viability, with irradiation ([1]; 100 μM complex for 48 h, then 450 nm irradiation for 1 h, untreated non-irradiated cells = 100%) | pKa1 [3] | pKa2 [3] | rate in acetonitrile vs. pH 5 aqueous media ([2]; 450 nm blue light) | time to entirely complete photodecomposition ([2]; acetonitrile, 450 nm blue light) | extent of photodecomposition ([2]; acetonitrile, 450 nm blue light, 5 minutes) | kobs, zero order rate constant of photodecomposition ([2]; acetonitrile, 450 nm blue light, followed at 457 nm) | kobs, zero order rate constant of blue light induced ligand loss ([2]; pH 5 aqueous solution, 450 nm blue light, initial rate 0-300 s, followed at 461 nm) | ligand dissociation ([2]; pH 5 in water, blue light) | rate of photodecomposition / ligand loss ([2]; 450 nm blue light) | rate of photodecomposition / ligand loss ([2]; 450 nm blue light, listed as [Ru(bpy)2(66′bpy(OH)2)2)]^2+) | stability in acetonitrile solution ([2]; protected from light or exposed to 720 nm red light)
F[P-](F)(F)(F)(F)F.F[P-](F)(F)(F)(F)F.Oc1ccnc(-c2cc(O)ccn2)c1.[Ru+2].c1ccc(-c2ccccn2)nc1.c1ccc(-c2ccccn2)nc1 [[Ru(bpy)2(44′bpy(OH)2)]^2+, [Ru(bpy)2(44′bpy(OH)2)][PF6]2] | 91+/−4% | no significant effects | > 100 µM | no photo-dissociation |  |  |  |  |  |  |  |  |  |  |  | 
F[P-](F)(F)(F)(F)F.F[P-](F)(F)(F)(F)F.O.Oc1cccc(-c2cccc(O)n2)n1.[Ru+2].c1ccc(-c2ccccn2)nc1.c1ccc(-c2ccccn2)nc1 [[Ru(bpy)2(66′bpy(OH)2)]^2+, [Ru(bpy)2(66′bpy(OH)2)][PF6]2.H2O] |  |  | 88 µM |  | 47+/−12% and 47% | 5.26 | 7.27 | 15 times | ≤ 20 min | 87% | 2.6(1)×10^−7 M/s | 1.7(2)×10^−8 M/s | readily dissociates | no measurable photodecomposition | zero | stable
[Cl][Ru][Cl].c1ccc(-c2ccccn2)nc1.c1ccc(-c2ccccn2)nc1.c1ccc(-c2ccccn2)nc1 [[Ru(bpy)3]^2+, [Ru(bpy)3][Cl]2] | 91+/−4% |  | 152 µM |  |  |  |  |  |  |  |  |  |  |  |  | 
